In patent US10988465B2, “CXCR4 inhibitors and uses thereof” (X4 Pharmaceuticals, Inc., priority 2016, dated 2021):
Where “and” joins values, the source holds several entries; their conditions need not be identical. Equal values may be shown once. Read-outs that look alike come from different tables or passages of the source.

What was measured:
[1] = target: T1, Jurkat cells expressing CXCR4 (Homo sapiens, UniProt P61073); assay: Chemokine (CXCL12-AF647) binding inhibition assay; conditions: CXCL12-AF647 25 ng/mL, read-out: IC50 CXCL-12 binding Jurkat
T1 construct: endogenous in cells; host or cells: Jurkat
How it was run: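 Cells in HBSS, 20 mM HEPES, 0.2% BSA, pH 7.4, preincubated 15 min at room temperature with compound, then 25 ng/mL CXCL12-AF647 for 30 min. After washing and paraformaldehyde fixation, bound ligand read by flow cytometry; percent inhibition calculated from MFI relative to unlabeled and ligand-only controls.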

[2] = Rat brain uptake assay: pharmacokinetics and brain penetration after IV-PO administration; format: in vivo, male SD rats; conditions: male, SD; for clearance / AUC(0-t) / bioavailability / half-life: Rat (3 mg/kg IV; 10 mg/kg, PO); for bioavailability: read-out: F % (oral bioavailability); for half-life: read-out: t½ (converted)
Method: Example 39: Pharmacokinetics and Brain Penetration Experiment to Determine Brain and Plasma Concentration of Compounds after IV-PO Administration to Male SD Rats
The IV and PO dosing solutions were prepared in 50 mM citrate buffer (pH 4.0) at 2 mg/mL. The blood collection was performed as follows: the animal was restrained manually at the designated time points, approximately 150 μL of blood sample was collected via cardiac puncture vein into EDTA-2K tubes. The blood samples were maintained in wet ice first and centrifuged to obtain plasma (2000 g, 4° C., 5 min) within 15 minutes post sampling. The brain collection was performed as follows: a mid-line incision was made in the animal's scalp and the skin was retracted. Using small bone cutters and rongeurs, the skull overlying the brain was removed. The brain was removed using a spatula and rinsed with cold saline. The brain was placed in screw-top tubes and then stored under −70° C. until analysis. The CSF collection was performed as follows: the animal was euthanized under deep anesthesia with air bubble tail vein injection. The CSF was collected by direct puncture of butterfly needle into the cisterna magna, using the occipital bone and the wings of the atlas as landmarks. A piece of white paper was used as a background to monitor color change in the sample just above the needle during collection. Upon observation of color change, the PE tubing was quickly clamped off above the color change and cut just above the clamped site. The clear sample was drawn into the syringe.
An aliquot of 30 μL sample was added to 100 μL MeCN containing 100 ng/mL IS (Dexamethasone). The mixture was vortexed for 10 min and centrifuged at 5800 rpm for 10 min. An aliquot of 40 μL supernatant was added with 40 μl H2O and the mixture was vortexed for 5 min. An aliquot of 2 μL supernatant was injected for LC-MS/MS analysis.
The sample was homogenized with 3 volumes (v/w) of PBS. An aliquot of 30 μL sample was added with 100 μL MeCN containing 100 ng/mL IS (Dexamethasone). The mixture was vortexed for 10 min and centrifuged at 5800 rpm for 10 min. An aliquot of 40 μL supernatant was added with 40 μl H2O and the mixture was vortexed for 5 min. An aliquot of 2 μL supernatant was injected for LC-MS/MS analysis.
An aliquot of 10 μL sample was added to 10 μL MeOH/H2O (1/1) and 40 μL ACN containing 200 ng/mL IS (Dexamethasone) 120 μL H2O. The mixture was vortexed for 5 min. An aliquot of 2 μL supernatant was injected for LC-MS/MS analysis.
The sample analysis was performed on UPLC-MS/MS-02 (Triple Quad™ 4000) under the following conditions: positive ion, ESI, MRM detection using dexamethasone as internal standard. HPLC conditions: mobile phase A: H2O-0.1% FA, mobile phase B: MeCN-0.1% FA on ACQUITY UPLC HSS T3 (2.1×50 mm, 1.8 μm) column at 60° C. In Table 11, F % means means oral bioavailability (the total number for protein bound and free fraction).

[3] = as above; format: in vivo, male SD rats
[4] = 7-day toxicology study in mice (clinical observations, body weight, food consumption, necropsy, hematology); format: in vivo, male C57BL/6 mice; conditions: for WBC (10^9/L), Mean: group mean; for WBC (10^9/L), Mean / WBC (10^9/L): day 8, 24 hours after last dose; for WBC (10^9/L): individual animal
Method: Example 41: 7-Day Toxicology Study in Mice
Blood samples were taken on day 8, 24 hours after last dose.

[5] = brain (brain proteins), read-out: Fu (b) % (fraction of drug unbound to brain proteins)
[6] = plasma, read-out: Fu (p) % (fraction of drug unbound to plasma proteins)

T1 sequence (P61073 whole entry): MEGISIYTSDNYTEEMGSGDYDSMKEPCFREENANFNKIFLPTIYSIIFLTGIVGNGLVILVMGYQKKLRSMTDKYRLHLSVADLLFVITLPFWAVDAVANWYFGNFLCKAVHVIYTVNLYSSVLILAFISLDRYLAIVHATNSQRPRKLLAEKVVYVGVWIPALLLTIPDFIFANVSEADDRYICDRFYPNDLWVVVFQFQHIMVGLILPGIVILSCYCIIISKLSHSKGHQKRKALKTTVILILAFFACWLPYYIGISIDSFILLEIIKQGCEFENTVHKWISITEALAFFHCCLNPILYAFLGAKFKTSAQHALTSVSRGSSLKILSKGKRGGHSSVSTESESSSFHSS

CN1CCN(c2cccc3nc([C@H]4CCC[C@@H](c5ncccc5Cl)N4)[nH]c23)CC1 (racemic) [I-122]
IC50 [1]: 0.01 to 100 nM
Kp uu ([2]; brain/plasma (unbound), Fu (b)*AUC last (b)/Fu (p)*AUC last (p), Rat, read-out: Kp, uu (unbound brain/unbound plasma drug concentration ratio)): 0.2
Kp ([2]; brain/plasma, AUC last(b)/AUC last(p), Rat, read-out: Kp (brain/plasma drug concentration ratio)): 1.22
clearance ([2]; plasma): 31.7 mL/min/kg
AUC(0-t) ([2]; plasma, read-out: AUClast (P)): 5440 ng·h/mL
bioavailability ([2]; plasma): 74.6%
half-life ([2]; plasma): 5.31 h
AUC(0-t) ([2]; brain, read-out: AUClast (b)): 6650 ng·h/mL
fraction unbound [3, 5]: 0.041
fraction unbound [3, 6]: 0.251

Cc1cccnc1[C@@H]1CCC[C@H](c2nc3cccc(N4CCN(C)CC4)c3[nH]2)N1C (racemic) [I-3, 2-((2R,6S)-1-methyl-6-(3-methylpyridin-2-yl)piperidin-2-yl)-7-(4-methylpiperazin-1-yl)-1H-benzo[d]imidazole]
IC50 [1]: 0.01 to 100 nM
clearance ([2]; plasma): 123 mL/min/kg
AUC(0-t) ([2]; plasma, read-out: AUClast (P)): 503 ng·h/mL
bioavailability ([2]; plasma): 37.6%
half-life ([2]; plasma): 2.1 h
AUC(0-t) ([2]; brain, read-out: AUClast (b)): 1520 ng·h/mL
WBC (10^9/L), Mean ([4]; Group 2, PO-10 mg/kg): 4.92 10^9/L
WBC (10^9/L) ([4]; Group 2, PO-10 mg/kg, 10 mg/kg): 3.67 10^9/L and 6.66 10^9/L and 4.44 10^9/L
WBC (10^9/L), Mean ([4]; Group 3, PO-30 mg/kg): 8.58 10^9/L
WBC (10^9/L) ([4]; Group 3, PO-30 mg/kg, 30 mg/kg): 11.6 10^9/L and 6.51 10^9/L and 7.69 10^9/L
WBC (10^9/L), Mean ([4]; Group 4, PO-100 mg/kg): 18.7 10^9/L
WBC (10^9/L) ([4]; Group 4, PO-100 mg/kg, 100 mg/kg): 20.4 10^9/L
necropsy finding ([4]; dose of 30 mg/kg P.O., 7 days): One mouse had an enlarged kidney
white blood cells ([4]; dose of 100 mg/kg P.O., 7 days): sustained increase
overt toxicity (clinical observations, body weight, food consumption) ([4]; male C57BL/6 mice, 7 days repeat dosing up to 100 mg/kg/day by oral gavage): no overt signs of toxicity
body weight ([4]; male C57BL/6 mice, 7 days, up to 100 mg/kg/day by oral gavage): remained stable
fraction unbound [3, 5]: 0.014
fraction unbound [3, 6]: 0.101
